Assays:
[1] = system: Low to Intermediate-1 Risk Myelodysplastic Syndrome; assay: Clinical study of ezatiostat hydrochloride tablets in IPSS low to intermediate-1 risk MDS patients: hematologic improvement and efficacy; type: in vivo, human; conditions: for significant RBC transfusion reduction: five of 11 patients; for HI-E Response Rate (95% Confidence Interval): prior DMTI Yes, N 15
Experimental: Subsequently, 37 patients were treated at 3 grams daily for two weeks followed by a one week rest period, and 36 patients were treated at 2 grams daily for three weeks followed by a one week rest period.
The median age was 72 years, with a patient population distribution of IPSS low risk (23 patients, 32%) and intermediate-1 risk (50 patients, 68%).

[2] = system: Low to Intermediate-1 Risk Myelodysplastic Syndrome; assay: Clinical study of ezatiostat hydrochloride tablets in MDS patients: adverse events (safety); type: in vivo, human
Experimental: Eighty-seven patients were randomized and treated at 23 investigational sites. After initial dose ranging in 14 patients, two dose levels were selected for further study. Subsequently, 37 patients were treated at 3 grams daily for two weeks followed by a one week rest period, and 36 patients were treated at 2 grams daily for three weeks followed by a one week rest period. The data on these 73 patients was pooled for this preliminary analysis.
The safety data is based on all patients treated.

[3] = 1 g b.i.d. 3 weeks on & 1 week off (N = 31)
[4] = 1 g b.i.d. 3 weeks on & 1 week off, 6 responders
[5] = 1.5 g b.i.d. 2 weeks on & 1 week off (N = 29)
[6] = 1.5 g b.i.d. 2 weeks on & 1 week off, 7 responders

What does the source list for CCOC(=O)[C@@H](N)CCC(=O)N[C@@H](CSCc1ccccc1)C(=O)N[C@@H](C(=O)OCC)c1ccccc1 [Telintra, ethyl (2S)-2-amino-5-[[(2R)-3-benzylsulfanyl-1-[[(1R)-2-ethoxy-2-oxo-1-phenylethyl]amino]-1-oxopropan-2-yl]amino]-5-oxopentanoate]?
Duration of HI-E Response, Median (95% CI) ([1]; 1 g b.i.d. 3 weeks on & 1 week off): 46.1 (10.0-46.1) Weeks; Time to HI-E Response, Max [1, 3]: 11.3 Weeks; Time to HI-E Response, Mean [1, 3]: 8.9 (1.29) ^ Weeks; Time to HI-E Response, Min [1, 3]: 8.0 Weeks; Duration of HI-E Response, # Censored [1, 4]: 4 (66.7%); Duration of HI-E Response, # Event [1, 4]: 2 (33.3%); Duration of HI-E Response, Median (95% CI) ([1]; 1.5 g b.i.d. 2 weeks on & 1 week off): 18.4 (3.1-51.0) Weeks; Time to HI-E Response, Max [1, 5]: 10.0 Weeks; Time to HI-E Response, Mean [1, 5]: 8.4 (0.72) ^ Weeks; Time to HI-E Response, Min [1, 5]: 8.0 Weeks; Duration of HI-E Response, # Censored [1, 6]: 2 (28.6%); Duration of HI-E Response, # Event [1, 6]: 5 (71.4%); RBC transfusion independence ([1]; 4 of 38 RBC transfusion-dependent patients): 11%; clinically significant RBC transfusion reductions (reduction of 4 U/8 weeks, IWG 2006) ([1]; 11 of 38 RBC transfusion-dependent patients): 29%; effect of prior Revlimid treatment on HI-E response ([1]; logistic regression analysis): enhance; decrease in the odds for a HI-E response predicted by prior DMTI treatment ([1]; logistic regression analysis, p=0.023): five-fold; significant RBC transfusion reduction ([1]; no prior Revlimid, no prior DMTI): 45%; complete remission continued following discontinuation of therapy ([1]; one patient): more than 12 months; HI-E Response Rate (95% Confidence Interval) ([1]; prior Revlimid No): 0.0% (0.0%-21.8%); HI-E Response Rate (95% Confidence Interval) ([1]; prior Revlimid Yes, listed as ezatiostat hydrochloride): about 20%; significant RBC transfusion reduction ([1]; prior Revlimid, no prior DMTI): 45%; transfusion independence ([1]; prior Revlimid, no prior DMTI, three of 11 patients): 27%; diarrhea, Grade 1 adverse event ([2]; all patients treated): 25%; diarrhea, Grade 2 adverse event ([2]; all patients treated): 7%; diarrhea, Grade 3 adverse event ([2]; all patients treated): 3%; nausea, Grade 1 adverse event ([2]; all patients treated): 45%; nausea, Grade 2 adverse event ([2]; all patients treated): 16%; nausea, Grade 3 adverse event ([2]; all patients treated): 1%; vomiting, Grade 1 adverse event ([2]; all patients treated): 30%; vomiting, Grade 2 adverse event ([2]; all patients treated): 12%; vomiting, Grade 3 adverse event ([2]; all patients treated): 2%; incidence of GI AEs with prior DMTI treatment ([2]; patients with prior DMTI treatment): increased incidence
